Experimental data from the supplement of paper PMC4862054.
Values belong to the molecule of their own block, whether it stands above or below them.

Tests used:
HCC1143 [1] = settings: 72 h
Procedure, shortened: (§1)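 In this assay, breast cancer cell lines spent 72 h with compound at 5 concentrations in 10-fold steps over a compound-specific 10,000-fold range. The first readout was cell death by CellTox Green fluorescence, and the second was viability by CellTiter-Glo luminescence, each normalised per plate to 0.1 % DMSO and a positive kill control. EC50 came from the dose-response curves, censored at the top concentration.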

HCC1937 [2] = settings: 72 h
Procedure, shortened: as §1

HDQ-P1 [3] = settings: 72 h
Procedure, shortened: as §1

MDA-MB-436 [4] = settings: 72 h
Procedure, shortened: as §1

BT-474 [5] = settings: 72 h
Procedure, shortened: as §1

MDA-MB-231 [6] = settings: 72 h
Procedure, shortened: as §1

CAL-51 [7] = settings: 72 h
Procedure, shortened: as §1

BT-549 [8] = settings: 72 h
Procedure, shortened: as §1

CAL-148 [9] = settings: 72 h
Procedure, shortened: as §1

DU-4475 [10] = settings: 72 h
Procedure, shortened: as §1

Hs578T [11] = settings: 72 h
Procedure, shortened: as §1

MFM-223 [12] = settings: 72 h
Procedure, shortened: as §1

HCC1937 [13] = settings: 72 h; remark: listed apart in the source
Description: (§2)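 Drug sensitivity and resistance testing (DSRT) of breast cancer cell lines in 384-well plates, 5 concentrations in 10-fold dilutions over a compound-specific 10,000-fold range. After 72 h, cytotoxicity was read by CellTox Green fluorescence and viability by CellTiter-Glo luminescence (multiplexed), normalised to DMSO and benzethonium chloride controls. EC50 is the inflection point of the fitted dose-response curve (bottom asymptote free, so it can be relative for partial curves) and is censored at the highest tested concentration. Rows with DSS 0 (no meaningful response) were excluded.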

BT-474 [14] = settings: 72 h; remark: listed apart in the source
Description: as §2

MDA-MB-468 = settings: 72 h
Description: as §2

MDA-MB-231 [15] = settings: 72 h; remark: listed apart in the source
Description: as §2

CAL-51 [16] = settings: 72 h; remark: listed apart in the source
Description: as §2

BT-549 [17] = settings: 72 h; remark: listed apart in the source
Description: as §2

CAL-148 [18] = settings: 72 h; remark: listed apart in the source
Description: as §2

MDA-MB-453 [19] = settings: 72 h
Procedure, shortened: as §1

MCF-10A [20] = settings: 72 h
Procedure, shortened: as §1

SK-BR-3 [21] = settings: 72 h
Procedure, shortened: as §1

HCC1599 [22] = settings: 72 h
Procedure, shortened: as §1

CAL-85-1 [23] = settings: 72 h
Procedure, shortened: as §1

MDA-MB-453 [24] = settings: 72 h; remark: listed apart in the source
Procedure, shortened: (§3)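 Compound dissolved in 5 µl medium was placed in 384-well plates before 20 µl of breast cancer cell suspension was added, and the plates were incubated for 72 h. Cells then received 2.5 µl CellTiter-Blue for 2 h at 37 °C, and fluorescence was read at 560/590 nm. EC50 values come from percent-inhibition dose-response fits that were censored at the highest concentration, with plates normalised to vehicle and a positive kill control and rows with a zero drug sensitivity score excluded.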

HDQ-P1 [25] = settings: 72 h; remark: listed apart in the source
Procedure, shortened: as §3

CAL-85-1 [26] = settings: 72 h; remark: listed apart in the source
Procedure, shortened: as §3

DU-4475 [27] = settings: 72 h; remark: listed apart in the source
Procedure, shortened: as §3

HCC1143 [28] = settings: 72 h; remark: listed apart in the source
Procedure, shortened: as §3

BT-474 [29] = settings: 72 h; remark: listed apart in the source
Procedure, shortened: as §3

MDA-MB-231 [30] = settings: 72 h; remark: listed apart in the source
Procedure, shortened: as §3

HCC1599 [31] = settings: 72 h; remark: listed apart in the source
Procedure, shortened: as §3

Hs578T [32] = settings: 72 h; remark: listed apart in the source
Procedure, shortened: as §3

MFM-223 [33] = settings: 72 h; remark: listed apart in the source
Procedure, shortened: as §3

SK-BR-3 [34] = experiment: normalised viability (% of control), CellTiter-Blue; higher = more viable cells (about 100 = DMSO control); settings: 100 nM; incubation time: 72 h
Procedure, shortened: (§4)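 384-well plates were pre-loaded with compound in 5 µl medium before 20 µl of breast cancer cell suspension was seeded. Following 72 h incubation, 2.5 µl CellTiter-Blue reagent was added for 2 h at 37 °C. Fluorescence was read at 560/590 nm and plates were normalised to vehicle (100) and a positive kill control (0), checked by Z'-factor. Normalised viability is reported at a single listed concentration of the series.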

MDA-MB-436 [35] = experiment: as above; settings: 100 nM; incubation time: 72 h
Procedure, shortened: as §4

BT-549 [36] = experiment: as above; settings: 100 nM; incubation time: 72 h
Procedure, shortened: as §4

Hs578T [37] = experiment: as above; settings: 100 nM; incubation time: 72 h
Procedure, shortened: as §4

MFM-223 [38] = experiment: as above; settings: 100 nM; incubation time: 72 h
Procedure, shortened: as §4

HCC1143 [39] = settings: 72 h; remark: listed apart in the source
Description: as §2

MCF-10A [40] = settings: 72 h; remark: listed apart in the source
Description: as §2

HDQ-P1 [41] = settings: 72 h; remark: listed apart in the source
Description: as §2

CAL-85-1 [42] = settings: 72 h; remark: listed apart in the source
Description: as §2

DU-4475 [43] = settings: 72 h; remark: listed apart in the source
Description: as §2

Hs578T [44] = settings: 72 h; remark: listed apart in the source
Description: as §2

EC50, CellTiter-Glo (HCC1143 [1]): 41.6 nM
EC50, CellTiter-Glo (HCC1937 [2]): 1740 nM
EC50, CellTiter-Glo (MDA-MB-436 [4]): 27 nM
EC50, CellTiter-Glo (BT-474 [5]): 76.1 nM
EC50, CellTiter-Glo (MDA-MB-231 [6]): 990 nM
EC50, CellTiter-Glo (BT-549 [8]): 177 nM
SMILES: COc1cc(Nc2ncc3c(n2)-c2ccc(Cl)cc2C(c2c(F)cccc2OC)=NC3)ccc1C(=O)O [Alisertib]
EC50, CellTiter-Glo (HDQ-P1 [3]): 8410 nM
EC50, CellTiter-Glo (CAL-51 [7]): 76.4 nM
EC50, CellTiter-Glo (CAL-148 [9]): 659 nM
EC50, CellTiter-Glo (DU-4475 [10]): 24.6 nM
EC50, CellTiter-Glo (Hs578T [11]): 77.9 nM
EC50, CellTiter-Glo (MFM-223 [12]): 615 nM
EC50, CellTox Green (HCC1937 [13]): 7460 nM
EC50, CellTox Green (BT-474 [14]): 8370 nM
EC50, CellTox Green (MDA-MB-468): 15.5 nM
EC50, CellTox Green (MDA-MB-231 [15]): 14.8 nM
EC50, CellTox Green (CAL-51 [16]): 18.2 nM
EC50, CellTox Green (BT-549 [17]): 756 nM
EC50, CellTox Green (CAL-148 [18]): 156 nM

EC50, CellTiter-Glo (HCC1143 [1]): 63 nM
EC50, CellTiter-Glo (HCC1937 [2]): 113 nM
EC50, CellTiter-Glo (MDA-MB-453 [19]): 23.4 nM
EC50, CellTiter-Glo (SK-BR-3 [21]): 46.3 nM
EC50, CellTiter-Glo (MDA-MB-436 [4]): 28 nM
EC50, CellTiter-Glo (BT-474 [5]): 324 nM
EC50, CellTiter-Glo (MDA-MB-231 [6]): 371 nM
EC50, CellTiter-Glo (BT-549 [8]): 52.9 nM
EC50, CellTiter-Glo (HCC1599 [22]): 266 nM
EC50, CellTiter-Blue viability (MDA-MB-453 [24]): 15.5 nM
EC50, CellTiter-Blue viability (HCC1143 [28]): 8.84 nM
EC50, CellTiter-Blue viability (BT-474 [29]): 48.4 nM
EC50, CellTiter-Blue viability (MDA-MB-231 [30]): 722 nM
EC50, CellTiter-Blue viability (HCC1599 [31]): 84.3 nM
SMILES: C=CCNC1=C2C[C@@H](C)C[C@H](OC)[C@H](O)[C@@H](C)/C=C(\C)[C@H](OC(N)=O)[C@@H](OC)/C=C\C=C(/C)C(=O)NC(=CC1=O)C2=O [Tanespimycin]
EC50, CellTiter-Glo (MCF-10A [20]): 87.8 nM
EC50, CellTiter-Glo (HDQ-P1 [3]): 103 nM
EC50, CellTiter-Glo (CAL-51 [7]): 78.2 nM
EC50, CellTiter-Glo (CAL-148 [9]): 178 nM
EC50, CellTiter-Glo (CAL-85-1 [23]): 404 nM
EC50, CellTiter-Glo (DU-4475 [10]): 208 nM
EC50, CellTiter-Glo (Hs578T [11]): 97.9 nM
EC50, CellTiter-Glo (MFM-223 [12]): 64.1 nM
EC50, CellTiter-Blue viability (HDQ-P1 [25]): 82.7 nM
EC50, CellTiter-Blue viability (CAL-85-1 [26]): 194 nM
EC50, CellTiter-Blue viability (DU-4475 [27]): 48.4 nM
EC50, CellTiter-Blue viability (Hs578T [32]): 36.9 nM
EC50, CellTiter-Blue viability (MFM-223 [33]): 18.4 nM
normalised viability (SK-BR-3 [34]): 16.5%
normalised viability (MDA-MB-436 [35]): 26.3%
normalised viability (BT-549 [36]): 32.9%
normalised viability (Hs578T [37]): 50.2%
normalised viability (MFM-223 [38]): 29.2%
EC50, CellTox Green (HCC1143 [39]): > 10000 nM
EC50, CellTox Green (MCF-10A [40]): 105 nM
EC50, CellTox Green (HDQ-P1 [41]): 112 nM
EC50, CellTox Green (BT-474 [14]): 696 nM
EC50, CellTox Green (MDA-MB-231 [15]): 24.8 nM
EC50, CellTox Green (CAL-51 [16]): 122 nM
EC50, CellTox Green (CAL-148 [18]): 112 nM
EC50, CellTox Green (CAL-85-1 [42]): 46.1 nM
EC50, CellTox Green (DU-4475 [43]): 179 nM
EC50, CellTox Green (Hs578T [44]): 4340 nM
